Results published in patent US5179089A, “Isoquinoline compounds, compositions and use” (Chinoin Gyogyszer es Vegyeszeti Termekek Gyara Rt., priority 1990, dated 1993).
Structures can show the parent of a compound that is named as a salt. Where two headings read alike, the source gives them in different places. Blank lines part the entries; values can stand above or below the molecule they belong to.

Experiments:
[1] = system: carrageenin-induced rat paw edema; experiment: Carrageenin-induced rat paw edema test; assay type: in vivo, rat (female CFY); details: for change in vivo at 50 mg/kg: Rattus norvegicus, po, 50 mg/kg (p.o.), read-out: Percentage of the protective effect; for Protective effect %: oral dose 20 mg/kg (Naproxen)
Procedure: Proc. Soc. Exp. Med. 111, 544 (1962)]. Female CFY rats weighing 100 to 120 g each were used after starvation for 24 hours. The inflammation was induced by injecting 0.1 ml of 1% carrageenin solution into the right hind paw plant. The severity of inflammation was determined by using an Ugo-Basile type plethysmometer. The measurement was carried out before and 1.5, 3 and 4.5 hours after induction of the inflammation. The animals were orally treated with the substance to be tested 1 hour before administration of carrageenin. The effect was expressed as percentage inhibition related to the control group.

[2] = system: active local anaphylactic reaction; experiment: Effect influencing the active local anaphylactic reaction on rat; assay type: in vivo, rat (female OFA); details: for Percentage of inhibition of the active local anaphylactic reaction: oral dose of 50 mg/kg, 30th minute after induction
Procedure: 1) The effect influencing the active local anaphylactic reaction was measured according to the method of M. Koltay [Arch. Allergy App. Immun. 71, 181 (1983)].
Female OFA rats weighing 160 to 180 g each were sensitized by bovine serum albumin (BSA) adsorbed to 50 μg of Al(OH)3 gel together with the simultaneous administration of Bordatella pertussis vaccine.
The anaphylactic reaction was elicited by injecting 100 μg of BSA into the right hind paw plant in the 14th day.
The measurements were carried out before and 30 minutes after eliciting the reaction. The animals were orally treated with the compound to be tested 1 hour before the injection of BSA. The results were expressed as percentage inhibition compared to the control group (average %±S.E.M.).

[3] = system: histamine-induced constriction of isolated tracheal smooth muscle of guinea pig; experiment: Inhibition of the histamine-induced constriction of isolated tracheal smooth muscle of guinea pig; details: Cavia porcellus, 0.25 h, isolated guinea pig trachea, read-out: Inhibition of the histamine-induced constriction of isolated tracheal smooth muscle of guinea pig pd'2 (converted)
Procedure: I Study on the Effects Against Spasmogenic Mediators [modified method of J. C. […] The investigation on isolated organs were carried out as follows. OHF Lt/R9 guinea pigs of both sexes weighing 300 to 400 g each were anaesthetized by pentobarbital. Their trachea was removed and sectioned in the opposite side to the site of smooth muscle in longitudinal direction. Subsequently, a strip-like preparation was obtained by […] cutting. […] A rest load of 0.5 g was used. Several washings were carried out during the incubation period of 30 minutes. The change in the tension of the tracheal smooth muscle was followed by using an isometric Grass FT-03 type tensiometer sensor device. A washing was made following the cumulative dose series of the given mediator (e.g. histamine). After reaching the base line, by 15 minutes after administration of the given concentration of the inhibitory (antiasthmatic) substance to be tested, the next cumulative dose series of the mediator was administered. In the case of an inhibitory action, the strength of effect, following the second dose series of the mediator, was […] in comparison to that of the first (control) series. For characterization of strength of the competitive antagonistic effect the pA2 value was determined according to the method of […] A pd'2 value was calculated [J. M. Van Rossum: Arch. Int.

[4] = system: serotonin-induced constriction of the isolated tracheal smooth muscle of the guinea pig; experiment: Inhibition of the serotonin-induced constriction of isolated tracheal smooth muscle of guinea pig; details: isolated guinea pig trachea; for pd'2 value against serotonin: 15 min
Procedure: (§1) I Study on the Effects Against Spasmogenic Mediators
[modified method of J. C.
(§2) The investigation on isolated organs were carried out as follows.
(§3) OHF Lt/R9 guinea pigs of both sexes weighing 300 to 400 g each were anaesthetized by pentobarbital. Their trachea was removed and sectioned in the opposite side to the site of smooth muscle in longitudinal direction. Subsequently, a strip-like preparation was obtained by serrately cutting.
(§4) A rest load of 0.5 g was used. Several washings were carried out during the incubation period of 30 minutes.
(§5) The change in the tension of the tracheal smooth muscle was followed by using an isometric Grass FT-03 type tensiometer sensor device. A washing was made following the cumulative dose series of the given mediator (e.g. histamine). After reaching the base line, by 15 minutes after administration of the given concentration of the inhibitory (antiasthmatic) substance to be tested, the next cumulative dose series of the mediator was administered. In the case of an inhibitory action, the strength of effect, following the second dose series of the mediator, was […] in comparison to that of the first (control) series.
A pd'2 value was calculated [J. M. Van Rossum: Arch. Int. […] The higher the pA2 or pd'2 value, respectively were, the higher was the antagonistic effect.

[5] = system: acetylcholine-induced constriction of the isolated tracheal smooth muscle of the guinea pig; experiment: Inhibition of the acetylcholine-induced constriction of isolated tracheal smooth muscle of guinea pig; details: Cavia porcellus, 0.25 h, isolated guinea pig trachea, read-out: pd'2 value against acetylcholine (converted)
Procedure: as §1
[modified method of J. C. Castillo et al.: Exp. Ther. 90, 104 (1947)]
as §2, §3
The organ was suspended in an organ bath containing 35 ml of Krebs solution at 37° C. bubbled through by carbogen gas (consisting of 95% of oxygen and 5% of carbon dioxide).
as §4, §5
For characterization of strength of the competitive antagonistic effect the pA2 value was determined according to the method of Schield [Br. J. Pharmacol. 4, 277 (1949)]. A pd'2 value was calculated [J. M. Van Rossum: Arch. Int. Pharmacodyn 143, 317 (1963)] to characterize the noncompatitive antagonistic effectivity. The higher the pA2 or pd'2 value, respectively were, the higher was the antagonistic effect.

[6] = system: dextran-induced rat paw edema; experiment: Dextran-induced rat paw edema test; assay type: in vivo; details: for Percentage of inhibition: 50 mg/kg (p.o.)
Procedure: 3) Dextran-induced rat paw edema test The method of S. Gourvaisier and R. Ducrot [Arch. Int. Pharmacodyn. Ther. 102, 33 (1955)] was employed. The method described for the carrageenin edema test was followed, except that the measurements were carried out 30, 60, 90, 120 and 180 minutes after induction of the inflammation.

IC50 [3]: 26.3 µM
Compound: N#CC(SCC(O)CN1CCCCC1)=C1NCCc2ccccc21 (centres unmarked) [Example 14, 2-(1,2,3,4-tetrahydro-1-isoquinolinylidene)-2-[2-hydroxy-3-(1-piperidinyl)propyl]mercaptoacetonitrile]
change in vivo at 50 mg/kg ([1]; 1.5 hours): -20.9%
change in vivo at 50 mg/kg ([1]; 3 hours): -20%
change in vivo at 50 mg/kg ([1]; 4.5 hours): -20%
Percentage of inhibition of the active local anaphylactic reaction [2]: -44.1%

IC50 [3]: 8.71 µM
IC50 [5]: 15.5 µM
Compound: CCOc1cc2c(cc1OCC)C(=C(C#N)SCC(CN1CCOCC1)OC(=O)c1ccccc1)NCC2 (centres unmarked) [Example 26, 2-(6,7-diethoxy-1,2,3,4-tetrahydro-1-isoquinolinylidene)-2-[2-benzoyloxy-3-(4-morpholinyl)-propyl]mercaptoacetonitrile hydrochloride]

IC50 [3]: 12.3 µM
Compound: CCOc1cc2c(cc1OCC)C(=C(C#N)SCC(O)CN(CC)CC)NCC2 (centres unmarked) [Example 2, 2-(6,7-diethoxy-1,2,3,4-tetrahydro-1-isoquinolinylidene)-2-(3-diethylamino-2-hydroxypropyl)-mercaptoacetonitrile hydrochloride]
change in vivo at 50 mg/kg ([1]; 1.5 hours): -22.9%
change in vivo at 50 mg/kg ([1]; 3 hours): -20.6%
change in vivo at 50 mg/kg ([1]; 4.5 hours): -11.3%
Percentage of inhibition ([6]; 30 minutes): -24%
Percentage of inhibition ([6]; 60 minutes): -21%
Percentage of inhibition ([6]; 90 minutes): -25%
Percentage of inhibition ([6]; 120 minutes): -23%
Percentage of inhibition ([6]; 180 minutes): -17%

IC50 [3]: 0.417 µM
IC50 [5]: 15.5 µM
Compound: COc1cc2c(cc1OC)C(=C(C#N)SCC(CN1CCOCC1)OC(=O)c1ccccc1)NCC2 (centres unmarked) [Example 25, 2-(6,7-dimethoxy-1,2,3,4-tetrahydro-1-isoquinolinylidene)-2-[2-benzoyloxy-3-(4-morpholinyl)propyl]mercaptoacetonitrile]
change in vivo at 50 mg/kg ([1]; 1.5 hours): -26.6%
change in vivo at 50 mg/kg ([1]; 3 hours): -17.7%
change in vivo at 50 mg/kg ([1]; 4.5 hours): -16%

IC50 [3]: 97.7 µM
Compound: COc1cc2c(cc1OC)C(=C(C#N)SCC(O)CN1CCCCCC1)NCC2 (centres unmarked) [Example 19, 2-(6,7-dimethoxy-1,2,3,4-tetrahydro-1-isoquinolinylidene)-2-(3-hexamethylenimino-2-hydroxypropyl)mercaptoacetonitrile]
change in vivo at 50 mg/kg ([1]; 1.5 hours): -29%
change in vivo at 50 mg/kg ([1]; 3 hours): -24.2%
change in vivo at 50 mg/kg ([1]; 4.5 hours): -19.5%
Percentage of inhibition ([6]; 30 minutes): -28.2%
Percentage of inhibition ([6]; 60 minutes): -26.6%
Percentage of inhibition ([6]; 90 minutes): -27.3%
Percentage of inhibition ([6]; 120 minutes): -27.8%
Percentage of inhibition ([6]; 180 minutes): -22.8%

IC50 [3]: 1.82 µM
Compound: COc1cc2c(cc1OC)C(=C(C#N)SCC(O)CN1CCOCC1)NCC2 (centres unmarked) [Example 17, 2-(6,7-dimethoxy-1,2,3,4-tetrahydro-1-isoquinolinylidene)-2-[2-hydroxy-3-(4-morpholinyl)propyl]mercaptoacetonitrile hydrochloride]
change in vivo at 50 mg/kg ([1]; 1.5 hours): -4.2%
change in vivo at 50 mg/kg ([1]; 3 hours): 0%
change in vivo at 50 mg/kg ([1]; 4.5 hours): 0%
Percentage of inhibition of the active local anaphylactic reaction [2]: -53.4%
Percentage of inhibition ([6]; 30 minutes): 27.5%
Percentage of inhibition ([6]; 60 minutes): 32.5%
Percentage of inhibition ([6]; 90 minutes): 32.1%
Percentage of inhibition ([6]; 120 minutes): 32.4%
Percentage of inhibition ([6]; 180 minutes): 20.3%

The next lines start with the molecule.

Compound: Cn1c(=O)c2[nH]cnc2n(C)c1=O [theophylline, reference compound]
IC50 [3]: 1.58 µM
pd'2 value against serotonin [4]: 6.16
pd'2 value against serotonin ([4]; listed as Theophylline): 6.49
IC50 [5]: 0.372 µM

Compound: COc1ccc2cc([C@H](C)C(=O)O)ccc2c1 [Naproxen, reference compound]
Protective effect % ([1]; 1.5 hours): 33.2%
Protective effect % ([1]; 3 hours): 44.3%
Protective effect % ([1]; 4.5 hours): 40.4%
Protective effect % in the 30th minute ([2]; oral dose 30 mg/kg (Naproxen)): 2.2%
Protective effect % ([6]; oral dose 20 mg/kg (Naproxen), 30 minutes): 16.9%
Protective effect % ([6]; oral dose 20 mg/kg (Naproxen), 60 minutes): 20.1%
Protective effect % ([6]; oral dose 20 mg/kg (Naproxen), 90 minutes): 18.9%
Protective effect % ([6]; oral dose 20 mg/kg (Naproxen), 120 minutes): 23.3%
Protective effect % ([6]; oral dose 20 mg/kg (Naproxen), 180 minutes): 21.6%

Compound: CCOc1cc2c(cc1OCC)C(=C(C#N)SCC(CN1CCOCC1)OC(C)=O)NCC2 (centres unmarked) [Example 24, 2-(6,7-diethoxy-1,2,3,4-tetrahydro-1-isoquinolinylidene)-2-[2-acetoxy-3-(4-morpholinyl)propyl]mercaptoacetonitrile]
change in vivo at 50 mg/kg ([1]; 1.5 hours): -25.8%
change in vivo at 50 mg/kg ([1]; 3 hours): -20.3%
change in vivo at 50 mg/kg ([1]; 4.5 hours): -20%
IC50 [3]: 1.17 µM
IC50 ([4]; Cavia porcellus, 0.25 h, read-out: pd'2 value against serotonin (converted)): 8.91 µM
IC50 [5]: 9.55 µM

Compound: C[C@@H]1C[C@H]2[C@@H]3CCC4=CC(=O)C=C[C@]4(C)[C@@]3(F)[C@@H](O)C[C@]2(C)[C@@]1(O)C(=O)CO [Dexamethasone, dexamethasone, reference compound]
Protective effect % in the 30th minute ([2]; oral dose 0.5 mg/kg (Dexamethasone)): 45.5%
Protective effect % ([6]; oral dose 0.5 mg/kg (dexamethasone), 30 minutes): 42.7%
Protective effect % ([6]; oral dose 0.5 mg/kg (dexamethasone), 60 minutes): 36.8%
Protective effect % ([6]; oral dose 0.5 mg/kg (dexamethasone), 90 minutes): 51.1%
Protective effect % ([6]; oral dose 0.5 mg/kg (dexamethasone), 120 minutes): 52.1%
Protective effect % ([6]; oral dose 0.5 mg/kg (dexamethasone), 180 minutes): 45.5%

Compound: NC1=NN(c2cccc(C(F)(F)F)c2)CC1 [BW 755C, reference compound]
Protective effect % in the 30th minute ([2]; oral dose 50 mg/kg (BW 755C)): 52.9%
Protective effect % ([6]; oral dose 50 mg/kg (BW-755C), 30 minutes): 15.4%
Protective effect % ([6]; oral dose 50 mg/kg (BW-755C), 60 minutes): 12.3%
Protective effect % ([6]; oral dose 50 mg/kg (BW-755C), 90 minutes): 17.2%
Protective effect % ([6]; oral dose 50 mg/kg (BW-755C), 120 minutes): 7.9%
Protective effect % ([6]; oral dose 50 mg/kg (BW-755C), 180 minutes): 11.3%
